{"source": "patent US20090022712A1", "about": "“Compositions and Methods for Inhibiting Leukocyte Function” (UNIVERSITY OF VIRGINIA PATENT FOUNDATION, priority 2006, published 2009)", "key": {"PMNs": {"tested_on": "PMNs", "assay": "PMN oxidative burst (SOD-inhibitable reduction of cytochrome c)", "assay_type": "cell-based, human", "settings": "TNF-α-primed adherent PMNs; peptide 20 μg/ml, dhCB 1 μg/ml", "experimental": "Oxidative burst of adherent PMNs was quantified by measuring the superoxide dismutase (SOD)-inhibitable reduction of cytochrome c as described (67). Briefly, PMNs (1.5×10^6/ml in HBSS-0.1% human serum albumin) were incubated in polypropylene tubes (1 hour; 37° C.) in a shaking water bath with or without the PAK peptide (20 μg/ml). PMNs were transferred to a fibrinogen-coated 96 well tissue culture plate. Cytochrome c (1.44 mg/ml) and catalase (0.062 mg/ml) (both Sigma) were added to wells with or without TNF-alpha (10 U/ml). Optical density was measured at indicated times against matched controls with SOD at 550 nm. Some PMNs were treated with dihydrocytochalasin B (dhCB) (1 μg/ml) to disrupt cell spreading on the surface (68). These samples served as negative control."}, "[1]": {"assay": "In vivo distribution of the PAK inhibitory peptide (flow cytometry)", "settings": "for uptake of peptide by blood neutrophils: 12 hours before sample", "method": "Six hours after injection, PAK-positive cells were identified by flow cytometry and their expression of CD31 and CD45 was determined. In additional experiments, mice inhaled LPS after an intraperitoneal injection of the fluorescent PAK peptide. Twelve hours later, PMNs were identified in blood, lungs, and BAL by their expression of CD45, GR-1, and 7/4 and investigated for their peptide uptake. In some experiments, lungs from these mice were fixed for confocal microscopy."}, "[2]": {"tested_on": "LPS-induced PMN migration into the lung", "assay": "Murine model of acute lung injury: LPS-induced PMN trafficking in the lung", "settings": "application of the peptide in mice in vivo", "method": "Wild type male C57B1/6 mice were obtained from Jackson Labs (Bar Harbor, Me.). […] Mice were eight to twelve weeks of age. Up to four mice were exposed to aerosolized LPS in a custom-built cylindrical chamber (20×9 cm) connected to an air nebulizer (MicroAir, Omron Healthcare, Vernon Hills, Ill.). […] Control mice were exposed to saline aerosol.\nPMN recruitment into the different compartments of the lung pulmonary vasculature, interstitium, alveolar airspace) was assessed as described (81). […] After 5 minutes, mice were euthanized and non-adherent PMN were removed from the pulmonary vasculature by flushing 10 ml of PBS at 25 cm H20 through the spontaneously beating right ventricle. BAL was withdrawn and lungs were removed, minced, and digested in the presence of excess unlabeled anti-GR-1 to prevent possible binding of the injected antibody to extravascular PMN. A cell suspension was prepared by passing the digested lungs through a 70 μm cell strainer (BD Falcon, Bedford, Mass.). Total cells in BAL and lung were counted and percentage of PMNs determined by flow cytometry. […] In the lung, the expression of GR-1 was used to distinguish intravascular (CD45+7/4+GR-1^+) from interstitial (CD45+7/4+GR-1^−) PMNs, which were not reached by the injected antibody 82."}, "adaptor protein Nck": {"biological_target": "adaptor protein Nck (UniProt P16333)", "assay": "cell-based or functional assay"}}, "note": "Where a SMILES comes first, the peptide text is derived from it.", "data": [{"compound": "C=C1[C@@H](C)[C@H]2[C@H](Cc3ccccc3)NC(=O)[C@]23OC(=O)CC[C@H](O)CCC[C@@H](C)C/C=C/[C@H]3[C@@H]1O", "note": "[dihydrocytochalasin B]", "values": [{"measurement": "adhesion-induced oxidative burst (superoxide production)", "setting": "PMNs", "result": "reduced"}]}, {"compound": "CSCC[C@H](NC(=O)[C@@H](NC(=O)[C@H](CO)NC(=O)[C@@H](NC(=O)[C@H](CC(N)=O)NC(=O)[C@H](CCCNC(=N)N)NC(=O)[C@H](CCSC)NC(=O)[C@@H]1CCCN1C(=O)[C@@H]1CCCN1C(=O)[C@H](C)NC(=O)[C@@H]1CCCN1C(=O)[C@@H]1CCCN1C(=O)[C@H](CCCCN)NC(=O)CNC(=O)[C@H](CCCNC(=N)N)NC(=O)[C@H](CCCNC(=N)N)NC(=O)[C@H](CCCNC(=N)N)NC(=O)[C@H](CCC(N)=O)NC(=O)[C@H](CCCNC(=N)N)NC(=O)[C@H](CCCNC(=N)N)NC(=O)[C@H](CCCCN)NC(=O)[C@H](CCCCN)NC(=O)[C@H](CCCNC(=N)N)NC(=O)CNC(=O)[C@@H](N)Cc1ccc(O)cc1)[C@@H](C)O)[C@@H](C)O)C(=O)O", "note": "[tat-PAK peptide] (H-YGRKKRRQRRRGKPPAPPMRNTSTM-OH; N-terminus and C-terminus assumed)", "values": [{"measurement": "PMNs in the BAL containing peptide", "setting": "[1]; i.v. 1 mg, 12 h, LPS", "result": "almost all neutrophils found in the BAL are non-fluorescent"}, {"measurement": "PMNs in the lung containing peptide", "setting": "[1]; i.v. 1 mg, 12 h, LPS", "result": "one-third"}, {"measurement": "uptake of peptide by blood neutrophils", "setting": "[1]; i.v. 1 mg", "result": "taken up by neutrophils"}, {"measurement": "uptake of peptide by blood neutrophils", "setting": "[1]; i.v. 1 mg, listed as PAK peptide", "result": "most PMNs are PAK peptide+"}, {"measurement": "share of peptide-positive lung cells that are CD45 positive", "setting": "[1]; intraperitoneal, six hours after injection, lung cell suspension", "result": 80, "unit": "%"}, {"measurement": "adverse side effects", "setting": "[2]", "result": "no apparent adverse side effects"}]}, {"compound": "tat-PAK peptide (inhibitory PAK peptide; first proline-rich domain of PAK fused to the HIV TAT transduction sequence)", "values": [{"measurement": "F-actin content in CXCL1-stimulated human PMNs (flow cytometry)", "setting": "adaptor protein Nck", "result": 30, "unit": "fold"}]}]}
